# Measured values: patent US8114645B2 (priority 2006, dated 2012)
# Read-outs that look alike come from different tables or passages of the source.
# Key:
# [1] = tested on: E. coli DP10 containing pBad33MevT, pHMGS or inactive controls; test: Cell growth with increased supplementation of saturated fatty acid 16:0, baffled shake flasks, OD600; format: cell-based
# [2] = tested on: E. coli DP10 expressing MevT gene constructs; test: Fatty acid supplementation of growth inhibited cells, 96-well plates, OD; format: cell-based; conditions: 100 μg/ml fatty acid with 400 μg/ml Brij, defined C medium, 96-well plate, arabinose induced; for growth of MevT expressing cells (pBad33MevT): E. coli DP10 pBad33MevT; for growth of cells containing pHMGS: E. coli DP10 pHMGS
# Method: Media components and chemicals were purchased from Sigma-Aldrich (St. Louis, Mo.) and Fisher Scientific (Pittsburgh, Pa.). For cloning and propagation of E. coli strains harboring the various recombinant pathways, Luria broth with Miller's modification (Sigma) was used with appropriate antibiotics for plasmid selection and 0.06% glucose for the repression of PBAD and PLAC promoter systems. DL-mevalonate used for media supplementation was prepared by mixing 1 volume of 2 M DL-mevalonic acid lactone (Sigma-Aldrich) with 1.02 volumes of 2 M KOH and incubating at 37° C. for 30 min. Campos et al. (2001) Biochem J 353, 59-67. […] Enzymes for molecular biology were purchased from New England Biolabs (Beverly, Mass.) and Invitrogen. E. coli strains TOP 10 and DH10B, both from Invitrogen, were used for cloning and plasmid construction.
# The optical density of samples taken from cultures in baffled flasks was measured using a UV-Spectrophotometer (Beckman), while the OD600 of cultures in 96-well microtiter plates was measured using a microtiter plate reader (SpectraMax, Molecular Devices).
# E. coli DP10 cells harboring pBad33, pBad33MevT, pMevT(C159A), pHMGS, or pHMGSR were incubated and induced in 96-well plates in fully defined C medium containing 50 μg/ml chloramphenicol (see material and methods) with supplemental cis-Δ^9-18:1, 16:0, cis-Δ^9-16:1, or a equal mass mixture of 16:0 and cis-Δ^9-16:1. […] Overnight starter cultures were used to inoculate fresh C medium in a 96-well microtiter plate.
# [3] = tested on: E. coli strains carrying a temperature sensitive fabD allele; conditions: Harder et al. 1972, 1974; cited from earlier work
# [4] = tested on: E. coli DH10B harboring pBad33MevT or pBad33; conditions: LB with 10 g/L NaCl vs 0.5 g/L NaCl
# Method: To further test if cells inhibited by the accumulation of HMG-CoA are suffering from osmotic stress, cells harboring pBad33MevT or pBad33 (the empty vector control) were incubated and induced in Luria Broth (LB) media with low (0.5 g/L) and high (10 g/L) concentrations of NaCl. […] Both culture media were supplemented with 1% (wt/vol) glycerol and 50 μg/ml chloramphenicol. Starter cultures of DH10B harboring either pBad33MevT or pBad33 were inoculated from single colonies and incubated overnight at 37° C. in LB media supplemented with 0.06% glucose (to repress the PBAD promoter) and chloramphenicol. Overnight starter cultures were diluted to an OD600 of 0.05 in either the low or high NaCl media in baffled shake flasks, incubated at 37° C. with continuous shaking and induced with the addition of 2 mM arabinose at an OD600 of approximately 0.39. The optical density of the culture was measured using a UV-Spectrophotometer (Beckman).
# [5] = tested on: temperature sensitive mutants of fabB; conditions: Broekman and Steenbakkers 1973; cited from earlier work
# [6] = tested on: E. coli; test: Effect of extra-cellular mevalonate on growth of E. coli; format: cell-based; conditions: high extra-cellular concentrations
# [7] = tested on: E. coli DH10B containing plasmids pMevT, pMBIS, and pADS; test: Amorpha-4,11-diene production assay with mevalonate supplementation (GC-MS of dodecane overlay); format: cell-based; conditions: exogenous mevalonate added, tested up to 20 mM D,L-mevalonate; vs no supplementation
# Method: Amorpha-4,11-diene production from E. coli strains expressing the full heterologous mevalonate pathway and amorphadiene synthase with or […] supplementation was assayed. E. coli DH10B containing plasmids pMevT, pMBIS, and pADS (FIGS. 5A and 5B) were grown in C medium containing 3.4% glycerol, 1% Casamino acids (BD, Franklin Lakes, N.J.), micronutrients, 50 μg/ml carbenicillin, 5 μg/ml tetracycline, and 25 μg/ml chloramphenicol with varying concentrations of exogenous mevalonate. […] Prior to inoculation, an overlay of 20% (v/v) dodecane (Sigma) was added to each culture flask to trap the volatile sesquiterpene product. […]
# Dodecane/ethyl acetate extracts were analyzed on a Hewlett-Packard 6890 gas chromatograph-mass spectrometer (GC/MS). […] The resolved samples were analyzed by a Hewlett-Packard model 5973 mass selective detector that monitored ions 189 and 204 m/z. […] Since pure standards of amorpha-4,11-diene are not currently available, the concentrations were quantified in terms of caryophyllene equivalents. A standard curve for caryophyllene was determined, based on a pure standard. […]
# To begin improving terpenoid production from engineered E. coli, limiting steps in the engineered pathway to amorphadiene were determined, as described in U.S. Pat. No. 7,183,089, U.S. Provisional Patent Application No. 60/802,266, Pitera et al. Metab Eng 9(2): 193-207 (2007), and as follows. […]
smiles,measurement,setting,value
"CCCCCCCCCCCCCCCC(=O)O [16:0, palmitic acid (hexadecanoic acid)]",cell growth on increasing the concentration above 100 μg/ml,"[1]; 200 μg/ml vs 100 μg/ml, baffled shake flasks",no additional effect on cell growth
same,cell growth of the inactive pathway controls,"[1]; DP10 harboring pMevT(C159A) or pHMGS(C159A), 100 or 200 μg/ml",not affected
same,growth inhibition caused by high expression of the MevT operon,"[1]; E. coli DP10 pBad33MevT, 100 μg/ml with 400 μg/ml Brij, baffled shake flasks",completely alleviated the growth inhibition
same,growth of cells expressing HMGS alone,"[1]; E. coli DP10 pHMGS, 100 μg/ml with 400 μg/ml Brij, baffled shake flasks",only improving the growth
same,growth of MevT expressing cells (pBad33MevT),[2],improved the growth
same,growth of cells containing pHMGS,[2],"clear, positive effect on the growth"
same,growth at non-permissive temperatures,[3],shown to grow at non-permissive temperatures
[Cl-].[Na+] [NaCl],growth of the empty vector control strain,[4]; DH10B containing pBad33,did not significantly affect
same,growth inhibition of E. coli cells expressing the MevT operon from pBad33MevT,"[4]; DH10B, 2 mM arabinose",effectively alleviated the growth inhibition
same,osmolality of the culture medium,culture medium containing NaCl at 0.5 g/L,about 125 mOsm/kg H2O
same,osmolality of the culture medium,culture medium containing NaCl at 10 g/L,about 452 mOsm/kg H2O
"CCCCCC/C=C\CCCCCCCC(=O)O [cis-Δ^9-16:1, palmitoleic acid]",growth of MevT expressing cells (pBad33MevT),[2],detrimental to the growth
same,growth of cells containing pHMGS,[2],detrimental to the growth
same,growth at non-permissive temperatures,[3],not
"CCCCCCCC/C=C\CCCCCCCC(=O)O [cis-Δ^9-18:1, oleic acid]",growth under non-permissive conditions,[5],can grow
same,growth of MevT expressing cells (pBad33MevT),[2],"to a lesser extent, cis-Δ^9-18:1 improved the growth"
CC(O)(CCO)CC(=O)O (stereo not drawn) [mevalonate],growth of E. coli,[6],no significant effect on the growth
same,production of amorphadiene,[7],increased the production of amorphadiene
